# Measurements: patent US20230085307A1, “PYRIDAZINONE COMPOUND AND HERBICIDE” (NISSAN CHEMICAL CORPORATION, priority 2019, published 2023)
# How the values were obtained:
# [1] = test system: barnyard grass; test: Test Example 3: herbicidal effect by foliage application, Wagner pot (Table 18, symbol H); format: in vivo, barnyard grass (Echinochloa crus-galli)
# Summary of the method: (§1)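 Plants were sown in alluvial soil held under 0.1–0.5 cm standing water and grown 14 days in a greenhouse at 25–30 °C. An emulsifiable formulation, water-diluted to the set dose, was then sprayed onto the foliage, and effects were scored three weeks later using previously defined criteria.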
# [2] = test system: Chinese sprangletop; test: Test Example 3: herbicidal effect by foliage application, Wagner pot (Table 18, symbol D); format: in vivo, chinese sprangletop (Leptochloa chinensis)
# Summary of the method: as §1
# [3] = test system: rice flat sedge; test: Test Example 3: herbicidal effect by foliage application, Wagner pot (Table 18, symbol E); format: in vivo, rice flat sedge (Cyperus iria)
# Summary of the method: as §1
# [4] = test system: southern crabgrass; test: Test Example 4: herbicidal effect by soil treatment (Table 19, symbol F); format: in vivo, southern crabgrass (Digitaria ciliaris)
# Summary of the method: (§2)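 Herbicidal effect was rated 3 weeks after treatment, using the scoring criteria of an earlier test. The compound, formulated as an emulsion and diluted in water to a set herbicide amount, had been sprayed uniformly on soil over freshly sown seeds. Growth took place in a greenhouse at 25° C. to 30° C.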
# [5] = test system: green foxtail; test: Test Example 4: herbicidal effect by soil treatment (Table 19, symbol G); format: in vivo, green foxtail (Setaria viridis)
# Summary of the method: as §2
# [6] = test system: barnyard grass; test: Test Example 4: herbicidal effect by soil treatment (Table 19, symbol H); format: in vivo, barnyard grass (Echinochloa crus-galli)
# Summary of the method: as §2
# [7] = test system: wild oat; test: Test Example 4: herbicidal effect by soil treatment (Table 19, symbol I); format: in vivo, wild oat (Avena fatua)
# Summary of the method: as §2
# [8] = test system: blackgrass; test: Test Example 4: herbicidal effect by soil treatment (Table 19, symbol J); format: in vivo, blackgrass (Alopecurus myosuroides)
# Summary of the method: as §2
# [9] = test system: Italian ryegrass; test: Test Example 4: herbicidal effect by soil treatment (Table 19, symbol K); format: in vivo, Italian ryegrass (Lolium multiflorum)
# Summary of the method: as §2
# [10] = test system: windgrass; test: Test Example 4: herbicidal effect by soil treatment (Table 19, symbol L); format: in vivo, windgrass (Apera spica-venti)
# Summary of the method: as §2
# [11] = test system: velvetleaf; test: Test Example 4: herbicidal effect by soil treatment (Table 19, symbol M); format: in vivo, velvetleaf (Abutilon theophrasti)
# Summary of the method: as §2
# [12] = test system: redroot pigweed; test: Test Example 4: herbicidal effect by soil treatment (Table 19, symbol N); format: in vivo, redroot pigweed (Amaranthus retroflexus)
# Summary of the method: as §2
# [13] = test system: lambsquarters; test: Test Example 4: herbicidal effect by soil treatment (Table 19, symbol O); format: in vivo, lambsquarters (Chenopodium album)
# Summary of the method: as §2
# [14] = test system: chickweed; test: Test Example 4: herbicidal effect by soil treatment (Table 19, symbol P); format: in vivo, common chickweed (Stellaria media)
# Summary of the method: as §2
# [15] = test system: false cleavers; test: Test Example 4: herbicidal effect by soil treatment (Table 19, symbol Q); format: in vivo, false cleavers (Galium spurium)
# Summary of the method: as §2
# [16] = test system: persian speedwell; test: Test Example 4: herbicidal effect by soil treatment (Table 19, symbol R); format: in vivo, Persian speedwell (Veronica persica)
# Summary of the method: as §2
# [17] = test system: southern crabgrass; test: Test Example 5: herbicidal effect by foliage application, plastic box (Table 20, symbol F); format: in vivo, southern crabgrass (Digitaria ciliaris); details: foliage application, 320 g/ha
# Summary of the method: (§3)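 Foliar spray test: emulsion formulation diluted in water to a set application rate, sprayed onto 14-day-old plants raised in diluvial soil at 25° C to 30° C under glass. Both herbicidal effect and crop effect rated visually three weeks later.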
# [18] = test system: green foxtail; test: Test Example 5: herbicidal effect by foliage application, plastic box (Table 20, symbol G); format: in vivo, green foxtail (Setaria viridis); details: foliage application, 320 g/ha
# Summary of the method: as §3
# [19] = test system: barnyard grass; test: Test Example 5: herbicidal effect by foliage application, plastic box (Table 20, symbol H); format: in vivo, barnyard grass (Echinochloa crus-galli); details: foliage application, 320 g/ha
# Summary of the method: as §3
# [20] = test system: wild oat; test: Test Example 5: herbicidal effect by foliage application, plastic box (Table 20, symbol I); format: in vivo, wild oat (Avena fatua); details: foliage application, 320 g/ha
# Summary of the method: as §3
# [21] = test system: blackgrass; test: Test Example 5: herbicidal effect by foliage application, plastic box (Table 20, symbol J); format: in vivo, blackgrass (Alopecurus myosuroides); details: foliage application, 320 g/ha
# Summary of the method: as §3
# [22] = test system: Italian ryegrass; test: Test Example 5: herbicidal effect by foliage application, plastic box (Table 20, symbol K); format: in vivo, Italian ryegrass (Lolium multiflorum); details: foliage application, 320 g/ha
# Summary of the method: as §3
# [23] = test system: windgrass; test: Test Example 5: herbicidal effect by foliage application, plastic box (Table 20, symbol L); format: in vivo, windgrass (Apera spica-venti); details: foliage application, 320 g/ha
# Summary of the method: as §3
# [24] = test system: velvetleaf; test: Test Example 5: herbicidal effect by foliage application, plastic box (Table 20, symbol M); format: in vivo, velvetleaf (Abutilon theophrasti); details: foliage application, 320 g/ha
# Summary of the method: as §3
# [25] = test system: lambsquarters; test: Test Example 5: herbicidal effect by foliage application, plastic box (Table 20, symbol O); format: in vivo, lambsquarters (Chenopodium album); details: foliage application, 320 g/ha
# Summary of the method: as §3
# [26] = test system: persian speedwell; test: Test Example 5: herbicidal effect by foliage application, plastic box (Table 20, symbol R); format: in vivo, Persian speedwell (Veronica persica); details: foliage application, 320 g/ha
# Summary of the method: as §3
# [27] = amount of applied herbicide 320 g/ha
compound,measurement,setting,value
Cc1nn(C)c(=O)c(-c2c(-c3ccc(CSCC(F)(F)F)cc3)sc3ccccc23)c1O [1-249],"herbicidal effect on H (barnyard grass), rating 0-5",[1]; 320 g/ha,5 (Herbicidal rate of 90% or more (almost completely withered))
same,"herbicidal effect on D (Chinese sprangletop), rating 0-5",[2]; 320 g/ha,3 (Herbicidal rate of 40% or more and less than 70%)
same,"herbicidal effect on E (rice flat sedge), rating 0-5",[3]; 320 g/ha,3 (Herbicidal rate of 40% or more and less than 70%)
same,"F: southern crabgrass, herbicidal effect rating",[4]; AAH 320 g/ha,0 (Herbicidal rate of 5% or less (almost no effect))
same,"G: green foxtail, herbicidal effect rating",[5]; AAH 320 g/ha,0 (Herbicidal rate of 5% or less (almost no effect))
same,"H: barnyard grass, herbicidal effect rating",[6]; AAH 320 g/ha,0 (Herbicidal rate of 5% or less (almost no effect))
same,"I: wild oat, herbicidal effect rating",[7]; AAH 320 g/ha,0 (Herbicidal rate of 5% or less (almost no effect))
same,"J: blackgrass, herbicidal effect rating",[8]; AAH 320 g/ha,0 (Herbicidal rate of 5% or less (almost no effect))
same,"K: Italian ryegrass, herbicidal effect rating",[9]; AAH 320 g/ha,3 (Herbicidal rate of 40% or more and less than 70%)
same,"L: windgrass, herbicidal effect rating",[10]; AAH 320 g/ha,0 (Herbicidal rate of 5% or less (almost no effect))
same,"M: velvetleaf, herbicidal effect rating",[11]; AAH 320 g/ha,0 (Herbicidal rate of 5% or less (almost no effect))
same,"N: redroot pigweed, herbicidal effect rating",[12]; AAH 320 g/ha,3 (Herbicidal rate of 40% or more and less than 70%)
same,"O: lambsquarters, herbicidal effect rating",[13]; AAH 320 g/ha,3 (Herbicidal rate of 40% or more and less than 70%)
same,"P: chickweed, herbicidal effect rating",[14]; AAH 320 g/ha,0 (Herbicidal rate of 5% or less (almost no effect))
same,"Q: false cleavers, herbicidal effect rating",[15]; AAH 320 g/ha,0 (Herbicidal rate of 5% or less (almost no effect))
same,"R: persian speedwell, herbicidal effect rating",[16]; AAH 320 g/ha,4 (Herbicidal rate of 70% or more and less than 90%)
same,effect on southern crabgrass (F),[17]; 3 weeks after application,4 (Herbicidal rate of 70% or more and less than 90%)
same,effect on green foxtail (G),[18]; 3 weeks after application,4 (Herbicidal rate of 70% or more and less than 90%)
same,effect on barnyard grass (H),[19]; 3 weeks after application,4 (Herbicidal rate of 70% or more and less than 90%)
same,effect on wild oat (I),[20]; 3 weeks after application,0 (Herbicidal rate of 5% or less (almost no effect))
same,effect on blackgrass (J),[21]; 3 weeks after application,0 (Herbicidal rate of 5% or less (almost no effect))
same,effect on Italian ryegrass (K),[22]; 3 weeks after application,4 (Herbicidal rate of 70% or more and less than 90%)
same,effect on windgrass (L),[23]; 3 weeks after application,0 (Herbicidal rate of 5% or less (almost no effect))
same,effect on velvetleaf (M),[24]; 3 weeks after application,5 (Herbicidal rate of 90% or more (almost completely withered))
same,effect on lambsquarters (O),[25]; 3 weeks after application,5 (Herbicidal rate of 90% or more (almost completely withered))
same,effect on persian speedwell (R),[26]; 3 weeks after application,5 (Herbicidal rate of 90% or more (almost completely withered))
CCSc1ccc(-c2oc3ccc(F)cc3c2-c2c(O)c(C)nn(C)c2=O)cc1 [9-039],"Herbicidal effect on H (barnyard grass), foliage application",[1]; [27],5 (Herbicidal rate of 90% or more (almost completely withered))
same,"Herbicidal effect on D (Chinese sprangletop), foliage application",[2]; [27],1 (Herbicidal rate of 5% or more and less than 20%)
same,"Herbicidal effect on E (rice flat sedge), foliage application",[3]; [27],5 (Herbicidal rate of 90% or more (almost completely withered))
same,"F: southern crabgrass, herbicidal effect grade",[4]; [27],4 (Herbicidal rate of 70% or more and less than 90%)
same,"G: green foxtail, herbicidal effect grade",[5]; [27],5 (Herbicidal rate of 90% or more (almost completely withered))
same,"H: barnyard grass, herbicidal effect grade",[6]; [27],2 (Herbicidal rate of 20% or more and less than 40%)
same,"I: wild oat, herbicidal effect grade",[7]; [27],0 (Herbicidal rate of 5% or less (almost no effect))
same,"J: blackgrass, herbicidal effect grade",[8]; [27],0 (Herbicidal rate of 5% or less (almost no effect))
same,"K: Italian ryegrass, herbicidal effect grade",[9]; [27],5 (Herbicidal rate of 90% or more (almost completely withered))
same,"L: windgrass, herbicidal effect grade",[10]; [27],0 (Herbicidal rate of 5% or less (almost no effect))
same,"M: velvetleaf, herbicidal effect grade",[11]; [27],3 (Herbicidal rate of 40% or more and less than 70%)
same,"N: redroot pigweed, herbicidal effect grade",[12]; [27],5 (Herbicidal rate of 90% or more (almost completely withered))
same,"O: lambsquarters, herbicidal effect grade",[13]; [27],4 (Herbicidal rate of 70% or more and less than 90%)
same,"P: chickweed, herbicidal effect grade",[14]; [27],3 (Herbicidal rate of 40% or more and less than 70%)
same,"Q: false cleavers, herbicidal effect grade",[15]; [27],0 (Herbicidal rate of 5% or less (almost no effect))
same,"R: persian speedwell, herbicidal effect grade",[16]; [27],5 (Herbicidal rate of 90% or more (almost completely withered))
same,herbicidal effect on southern crabgrass (F),[17]; three weeks after application,5 (Herbicidal rate of 90% or more (almost completely withered))
same,herbicidal effect on green foxtail (G),[18]; three weeks after application,5 (Herbicidal rate of 90% or more (almost completely withered))
same,herbicidal effect on barnyard grass (H),[19]; three weeks after application,3 (Herbicidal rate of 40% or more and less than 70%)
same,herbicidal effect on wild oat (I),[20]; three weeks after application,4 (Herbicidal rate of 70% or more and less than 90%)
same,herbicidal effect on blackgrass (J),[21]; three weeks after application,4 (Herbicidal rate of 70% or more and less than 90%)
same,herbicidal effect on Italian ryegrass (K),[22]; three weeks after application,5 (Herbicidal rate of 90% or more (almost completely withered))
same,herbicidal effect on windgrass (L),[23]; three weeks after application,5 (Herbicidal rate of 90% or more (almost completely withered))
same,herbicidal effect on velvetleaf (M),[24]; three weeks after application,5 (Herbicidal rate of 90% or more (almost completely withered))
same,herbicidal effect on lambsquarters (O),[25]; three weeks after application,5 (Herbicidal rate of 90% or more (almost completely withered))
same,herbicidal effect on persian speedwell (R),[26]; three weeks after application,5 (Herbicidal rate of 90% or more (almost completely withered))
